We go through eleven compounds from patent US8563526B2, “Triazole derivatives, their preparation and their application in therapeutics” (Institut National de la Sante et de la Recherche Medicale …, priority 2008, dated 2013).

Where two headings read alike, the source gives them in different places.

The subject of series [1] is Capan-2 cells. The experiment in a line: MTT cell survival assay on Capan-2 cells. The settings on record: for cell viability / cells die: FIG. 2; for inhibition at 50 µM: Homo sapiens, Capan-2, 48 h, read-out: Inhibition effect on Capan-2 at 50 μM (%). In kind it is cell-based. As for the experimental part:
For Capan-2 cell lines, the cells were cultured in RPMI 1640 medium supplemented with 10% FBS and 1% glutamine. Cells were seeded at a densitiy of 20,000 cells per well in 96 well View Plate™ (Packard) in 250 μl of medium containing the same components as described above.
(§1) Cells were allowed to adhere and proliferate for 24 hr. At that time, culture medium was removed and serial dilutions from 10 nM to 200 μM of the test compounds were added in culture medium. Gemcitabine and no treatment were included as positive and negative controls. Plates were further incubated at 37° C. and 5% CO2 for 48 hours. The number of viable cells remaining after the appropriate treatment was determined by Colorimetric Assay (3-(4,5-dimethylthiazol-2-yl)-2,5-diphenyl tetrazolium bromide, MTT).
(§2) Inhibition of MiaPaCa and Capan-2 cells were tested at different doses of compounds of the invention: 50 μM, 100 μM and 200 μM.
(§3) Cells were seeded on 96-well plates in 250 μL media and 24 hours later, compound to be tested was added in 250 μL of media to the desired final concentration (from 10 nM to 200 μM). After 48 hours, the number of viable cells remaining after the appropriate treatment was determined by MTT. Minimum Efficient Dose (MED) and IC50 values was evaluated from the dose-dependency study. The results in FIGS. 1, 2, 4 and 5 are presented in percentage of cell growth inhibition compared to control non treated cells.

Series [2] has as its system pancreatic cancer. Particulars: pancreatic cancer patients, first-line treatment; cited from earlier work.
In series [3] the test system is MiaPaCa cells. The experiment in a line: MTT cell survival assay on MiaPaCa cells. In kind it is cell-based. Particulars: for inhibition at 50 µM: Homo sapiens, MIA PaCa-2, 48 h. The protocol: Pancreactic cancer cell lines, MiaPaCa cells were cultured in DMEM medium (Gibco) supplemented with 10% fetal bovine serum (FBS). Cells were seeded at a densitiy of 15,000 cells per well in 96 well View Plate™ (Packard) in 250 μl of medium containing the same components as described above.
as §1, §2, §3

For series [4], the system named is MiaPaCa-2 cells. The experiment in a line: Combination effect with gemcitabine in vitro, MTT assay on MiaPaCa-2 cells. In kind it is cell-based. Particulars: combined with gemcitabine, MiaPaCa-2, FIG. 9. An excerpt:
FIG. 9 illustrates the beneficial combination effect of compounds (1, 4 or 18) in vitro based on the results obtained by using a MTT assay on MiaPaCa-2 cells.
Three compounds (compounds n^o 1, 4 and 18) combined with gemcitabine were accessed their anticancer activity.
For orientation: Tetrazolium assays rely on reduction of a dye to a coloured formazan, in cell work by metabolically active cells.

The subject of series [5] is p-8 mRNA. The series can be described thus: p-8 mRNA expression in MiaPaCa-2 cells by quantitative RT-PCR. In kind it is cell-based. The settings on record: FIG. 12. An excerpt:
The stress-associated protein, p-8 with antiapoptotic properties was strongly expressed in two of the most resistant pancreactic cancer cell lines, while Heat Shock Protein 27 (Hsp27) is a protein which can be over-expressed in many tumor cells and protects against apoptotic cell death triggered by various stimuli. So in order to study the intracellular target of the active compounds, the effect of the active compounds on the expression of p-8 and Hsp27 mRNA in MiaPaCa-2 cells were investigated by quantitative RT-PCR. First-strand cDNA was synthesized in 20 μL reaction with 1 μg total RNA using Expand Reverse Transcriptase (Roche, Meylan, France) following the instructions of the manufacturer. Quantitative PCR was done with the Light Cycler system (Roche) and Takara (Berkeley, Calif.) reagents. Five microliters of 10-fold diluted cDNA were mixed with 10 μL SYBR Premix Ex Taq (including Taq polymerase, reaction buffer, MgCl2, SYBR green I dye, and deoxynucleotide triphosphate mix) and […] forward and reverse primers (TBP primers are used as a control) in a volume of 20 μL. […] Each sample was analyzed in duplicate and the experiment was repeated twice. Results were analyzed using RelQuant (Roche) and expressed as percent of control values.

The test system of series [6] is MiaPaCa cells. The experiment in a line: Apoptosis evaluation on MiaPaCa cells by flow cytometry (sub-G0 ratio). In kind it is cell-based. Particulars: 24 h after administration, FIG. 3. As for the experimental part: Cells were plated in 10 cm dishes at the density of 300 000 cells/plate. Cells were stopped for flow cytometry analysis 12, 24 and 48 h post-treatment. After trypsination, cell pellet was washed with PBS and fixed in cold-ethanol 70% overnight at 4° C. After a wash with phosphate-citrate buffer, cells were treated with 200 μL RNA-ase (500 μg/mL), labeled with 1 mL propidium iodide (50 μg/mL), and immediately analyzed by flow cytometry (FACS Calibur, Becton Dickinson, Le Pont-De-Claix, France). Cell death analysis was done on 1,000,000 cells, evaluating the sub-G0 ratio. Each sample was performed in triplicate.
(In general: Flow cytometry measures light scatter and fluorescence of single cells or particles in a stream.)

Series [7] has as its system MiaPaCa-2-xenografed tumors. The experiment in a line: MiaPaCa-2 xenograft tumor growth in nude mice. In kind it is in vivo. The protocol:
The antitumor effects of the active compounds 1 and 4 were evaluated in nude mice bearing MiaPaCa-2-xenografed tumors. Institutional guidelines for the proper and human use of animals in research were followed. Approximately 1×10^7 MiaPaCa-2 cells were inoculated subcutaneously with 0.1 mL of Matrigel (BD Biosciences Discovery Labware) to 6-week-old male xenografed nude mice. When MiaPaCa-2 tumors reached 100 mm^3, mice were randomly selected for treatment with test compound and no treated mice were used as control. Each experimental group consisted of 8 mice. After randomization, 150 mg/kg test compound was injected every three days by i.p. injection for 5 weeks. The combination injection was performed every two days. Tumor volume measurements were performed once weekly and calculated by the formula length×width×depth×0.5236.

Setting [8] is: 50 μM, 48 hours, MTT, Table III.
Where [9] appears, read: 50 μM, 48 hours, MTT, Table II, read-out: Inhibition effect on MiaPaCa at 50 μM (%).
[10] abbreviates: 50 μM, 48 hours, MTT, Table III, read-out: Inhibition effect on MiaPaCa-2 at 50 μM (%).

Usually inhibition stands for the share of the control response that was lost under treatment.

`Nc1ccn([C@@H]2O[C@H](CO)[C@@H](O)C2(F)F)c(=O)n1` [Gemcitabine, reference compound]: the cell viability entry in series [1] (Capan-2, with dose increase) is “cell viability stagnates”. Besides, the inhibition at 50 µM was 61.7% in series [1] (50 μM, 48 hours, MTT, Table II); 61.7% in series [1] (setting [8]); 29.3% in series [3] (setting [9]); 29.3% in series [3] (setting [10]). Besides, in series [2], the response is 12%. The cells remaining alive entry in series [3] (MiaPaCa, 50 μM or 100 μM, FIG. 1) is on record as “about 80%”.

Turning to `NC(=O)c1nc(-c2cn(-c3cccc4ccccc34)nn2)n(COCCO)n1` [Compound 21, 1-((2-hydroxyethoxy)methyl)-5-(1-(naphthalen-1-yl)-1H-1,2,3-triazol-4-yl)-1H-1,2,4-triazole-3-carboxamide], the inhibition at 50 µM in series [1] (setting [8]) was determined as 55.6%; in series [3] (setting [10]), 30.9%.

For `NC(=O)c1nc(-c2cn(Cc3ccc4ccc5cccc6ccc3c4c56)nn2)n(COCCO)n1` [Compound 19, 1-((2-hydroxyethoxy)methyl)-5-(1-((pyren-3-yl)methyl)-1H-1,2,3-triazol-4-yl)-1H-1,2,4-triazole-3-carboxamide], the inhibition at 50 µM in series [1] (setting [8]) was determined as 43.4%; in series [3] (setting [10]), 59.3%.

As to `COC(=O)c1nc(-c2cn(Cc3ccc4ccc5cccc6ccc3c4c56)nn2)n(COCCOC(C)=O)n1` [Compound 18, Methyl 1-((2-acetoxyethoxy)methyl)-5-(1-((pyren-3-yl)methyl)-1H-1,2,3-triazol-4-yl)-1H-1,2,4-triazole-3-carboxylate], the inhibition at 50 µM in series [1] (setting [8]) is more than 50%. Further, the “antiproliferation in combination with gemcitabine” value in series [4] is reported as “more efficiency on antiproliferation”. Also, in series [5] (single treatment), the “p-8 mRNA expression” value is “significantly inhibit”.

With `NC(=O)c1nc(C#Cc2ccc(C(F)(F)F)cc2)n(COCCOC(=O)c2ccccc2)n1` [Compound 15, 1-[(2-(benzoyloxy)ethoxy)methyl]-5-(2-(4-trifluoromethylphenyl)ethynyl)-1H-1,2,4-triazole-3-carboxamide], the inhibition at 50 µM in series [1] (setting [8]) and in series [3] (setting [10]) was more than 50% in each case.

For `CCCCCCCCCCCCn1cc(-c2nc(C(N)=O)nn2COCCO)nn1` [Compound 17], the “Inhibition effect on Capan-2 at 50 μM (%)” value in series [1] (setting [8]) came to 29.5%. Further, the “Inhibition effect on MiaPaCa-2 at 50 μM (%)” value in series [3] (setting [8]) is on record as 43.2%.

As to `COC(=O)c1nc(C#CC2=CCCCC2)n([C@@H]2O[C@H](COC(C)=O)[C@@H](OC(C)=O)[C@H]2OC(C)=O)n1` [Compound 2, Methyl 5-(Cyclohexenylethynyl)-1-(2,3,5-tri-O-acetyl-β-D-ribofuranosyl)-1H-[1,2,4]triazole-3-carboxylate], the cell viability result in series [1] (Capan-2, doses higher than 100 μM) is “cell viability rapidly decreases”. Moreover, the inhibition at 50 µM in series [1] (50 μM, 48 hours, MTT, Table II) amounted to 57.6%; in series [3] (setting [9]), 21.3%.

On to `NC(=O)c1nc(-c2cn(Cc3ccc4ccc5cccc6ccc3c4c56)nn2)nn1COCCO` [Compound 20, 1-((2-hydroxyethoxy)methyl)-3-(1-((pyren-3-yl)methyl)-1H-1,2,3-triazol-4-yl)-1H-1,2,4-triazole-5-carboxamide], for which the values for the inhibition at 50 µM in series [1] (setting [8]) and in series [3] (setting [10]) were 60.6% and 28.7%, respectively.

Regarding `NC(=O)c1nc(C#Cc2ccc(Br)cc2)n(COCCO)n1` [Compound 14, 1-((2-hydroxyethoxy)methyl)-5-(2-(4-bromophenyl)ethynyl)-1H-1,2,4-triazole-3-carboxamide], the inhibition at 50 µM in series [1] (setting [8]) and in series [3] (setting [10]) was more than 50% each time.

Take `COC(=O)c1nc(C#Cc2ccc(C(F)(F)F)cc2)n([C@@H]2O[C@H](COC(C)=O)[C@@H](OC(C)=O)[C@H]2OC(C)=O)n1` [Compound 1, Methyl 5-(4-trifluoromethylphenylethynyl)-1-(2,3,5-tri-O-acetyl-β-D-ribofuranosyl)-1H-[1,2,4]triazole-3-carboxylate]: the cells die result in series [1] (Capan-2, 50 μM) is reported as “about 60%”; in series [1] (Capan-2, 100 μM) it was “more than 80%”; in series [3] (MiaPaCa, 50 μM, FIG. 1), “about 60%”. The inhibition at 50 µM in series [1] (50 μM, 48 hours, MTT, Table II) was more than 50%; in series [3] (setting [9]), more than 50%. Besides, in series [4], the “antiproliferation in combination with gemcitabine” value is recorded as “more efficiency on antiproliferation”. For the same compound, the “apoptosis compared to cells treated with gemcitabine” value in series [6] is “about 4 times”. The “apoptosis compared to non-treated cells” value in series [6] is listed as “about 8 times”. Besides, the MiaPaCa-2 tumor volume entry in series [7] (150 mg/kg i.p. every three days for 5 weeks, compound alone, FIG. 10) is recorded as “reduce MiaPaCa-2 tumor volume”. Besides, the “adverse effect of drug treatment” value in series [7] (alone or in combination with gemcitabine, nude mice, FIG. 11) is on record as “absence of adverse effect”. Besides, the tumor growth result in series [7] (combined with gemcitabine, injection every two days, FIG. 10) is given as “almost sinificantly inhibited”. For the same compound, in series [5] (combination with gemcitabine), the “p-8 mRNA expression” value was “down-regulated”.

As for `COC(=O)c1nc(-c2cn(-c3ccc4ccc5cccc6ccc3c4c56)nn2)n(COCCOC(C)=O)n1` [Compound 22, Methyl 1-((2-acetoxyethoxy)methyl)-5-(1-(pyren-3-yl)-1H-1,2,3-triazol-4-yl)-1H-1,2,4-triazole-3-carboxylate], the inhibition at 50 µM in series [1] (setting [8]) is 63.9%; in series [3] (setting [10]), 40.7%.
